# PMC6969523, “Corazonin signaling integrates energy homeostasis and lunar phase to regulate aspects of growth and sexual maturation in Platynereis” (Proceedings of the National Academy of Sciences of the …, 2019)
# “Also recorded” adds a separate entry of the source. Non-standard residues stand in square brackets, D forms with d. Residues, ends and D or L forms follow the SMILES beside them. pGlu = O=C1CC[C@@H](C(=O)O)N1
# T1: CrzRa (Platynereis dumerilii, UniProt A0A6B9MK47)
# T1 sequence (A0A6B9MK47 1-288): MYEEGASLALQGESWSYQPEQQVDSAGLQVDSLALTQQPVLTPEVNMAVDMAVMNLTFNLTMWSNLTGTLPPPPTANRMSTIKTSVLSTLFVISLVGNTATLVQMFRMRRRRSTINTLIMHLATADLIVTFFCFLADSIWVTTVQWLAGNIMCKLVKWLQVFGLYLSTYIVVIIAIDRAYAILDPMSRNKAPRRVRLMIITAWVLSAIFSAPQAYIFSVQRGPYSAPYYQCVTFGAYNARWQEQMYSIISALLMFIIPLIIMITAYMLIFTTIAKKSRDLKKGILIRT
# T2: CrzRb (Platynereis dumerilii, UniProt A0A291FE86)
# T2 sequence (A0A291FE86 1-422): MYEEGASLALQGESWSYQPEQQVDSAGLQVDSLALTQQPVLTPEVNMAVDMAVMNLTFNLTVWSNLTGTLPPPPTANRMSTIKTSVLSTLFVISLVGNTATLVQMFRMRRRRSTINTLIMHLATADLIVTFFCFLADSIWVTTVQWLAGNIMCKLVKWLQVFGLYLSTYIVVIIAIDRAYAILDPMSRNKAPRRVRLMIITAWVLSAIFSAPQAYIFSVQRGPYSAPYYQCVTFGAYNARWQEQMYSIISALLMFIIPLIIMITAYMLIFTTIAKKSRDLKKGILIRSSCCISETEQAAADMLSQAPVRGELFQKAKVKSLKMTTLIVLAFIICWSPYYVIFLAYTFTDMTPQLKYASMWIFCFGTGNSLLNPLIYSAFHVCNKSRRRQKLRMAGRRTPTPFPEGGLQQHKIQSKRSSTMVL
# T3: GnRHR2/AKHR2 (Platynereis dumerilii, UniProt A0A6B9MRA0)
# T3 sequence (A0A6B9MRA0 1-355): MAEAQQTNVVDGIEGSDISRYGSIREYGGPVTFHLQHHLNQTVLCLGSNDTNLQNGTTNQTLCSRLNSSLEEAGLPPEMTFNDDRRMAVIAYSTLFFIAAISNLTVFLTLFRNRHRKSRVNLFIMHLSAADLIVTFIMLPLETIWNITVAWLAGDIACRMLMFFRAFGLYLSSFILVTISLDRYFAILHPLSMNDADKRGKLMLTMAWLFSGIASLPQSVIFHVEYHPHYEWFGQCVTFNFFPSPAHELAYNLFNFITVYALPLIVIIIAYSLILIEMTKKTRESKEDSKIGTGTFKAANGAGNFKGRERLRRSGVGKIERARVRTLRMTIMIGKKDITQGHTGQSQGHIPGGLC
# T4: GnRHR1/AKHR1 (Platynereis dumerilii, UniProt A0A6B9MSD4)
# T4 sequence (A0A6B9MSD4 1-359): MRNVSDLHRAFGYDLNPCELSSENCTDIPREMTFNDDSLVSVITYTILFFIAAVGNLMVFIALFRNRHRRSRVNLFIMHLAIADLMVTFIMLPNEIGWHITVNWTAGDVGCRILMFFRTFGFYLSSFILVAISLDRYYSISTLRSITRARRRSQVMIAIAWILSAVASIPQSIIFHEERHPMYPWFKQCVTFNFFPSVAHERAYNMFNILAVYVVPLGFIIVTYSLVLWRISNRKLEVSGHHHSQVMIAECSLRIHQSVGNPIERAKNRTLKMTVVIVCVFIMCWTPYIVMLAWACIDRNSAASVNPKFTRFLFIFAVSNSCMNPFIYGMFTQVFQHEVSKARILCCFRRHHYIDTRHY
# What was measured:
# [1] = molecular target: T1, CrzRa; assay: Calcium mobilization (deorphanization) assay, CrzRa; assay type: cell-based
# Excerpt: (§1) We next took advantage of a cell culture-based calcium mobilization assay ([59]) for assessing the ligand–receptor interactions of these receptors. […] Given that a receptor for GnRHL3 was still missing, we tested ligand–receptor interactions of all identified Platynereis GnRH-like receptors. […] As we presently cannot exclude the existence of an additional GnRH-like receptor in Platynereis that might be activated by GnRHL3 at lower concentrations, we here use the more generic name (GnRHL3) for this ligand.
# (§2) CrzRb was identified and initially deorphanized in ref. [54]. GnRHR1/AKHR1 and GnRHR2/AKHR2, as well as the second isoform of CrzR (CrzRa) were identified using an in silico approach and confirmed by cloning and sequencing. To facilitate deorphanization, cDNA of these receptors was amplified from laboratory Platynereis strains and cloned into the pcDNA3.1 (+) vector. […] Receptor activation was measured by monitoring calcium responses for 30 s on a Mithras LB 940 luminometer (Berthold Technologies). Percentage activation values of receptors were plotted for each receptor, and half maximal effective concentrations (EC50 value) were calculated using a computerized nonlinear regression analysis with a sigmoidal dose–response equation (GraphPad PRISM software). […]
# [2] = tested on: GnRH-superfamily receptors; assay: Activation of GnRH-superfamily receptors in vitro; assay type: cell-based, Platynereis dumerilii
# Excerpt: as §1, §2
# [3] = molecular target: CrzR; assay: Ligand-receptor interaction, Corazonin receptor (isoform not given); assay type: cell-based, Platynereis dumerilii
# Excerpt: as §1, §2
# [4] = molecular target: T2, CrzRb; assay: Calcium mobilization (deorphanization) assay, CrzRb; assay type: cell-based
# Excerpt: as §1, §2
# [5] = tested on: honeybee larvae; conditions: fed with swainsonine; ref SI 20; cited from earlier work
# Excerpt: Cons e que nce s of lys os oma l α-ma n n o si d as e im p a i r me n t s i n o t h e r s pe ci es One of the molecular consequences of knocking out the Platynereis crz1/gnrhl1 gene that we reveal in this study is the strong reduction of lysosomal α-mannosidase. In huma ...
# [6] = tested on: glucose production; conditions: vertebrate glucagon; glycogenolysis and gluconeogenesis; ref [38], [66], [77]–[79]; cited from earlier work
# Excerpt: The focus on the metabolic consequences of CRZ/GnRHL provides an interesting perspective for the cross-comparison of corazonin signaling with other signaling systems. The proposed role of worm CRZ1 in promoting the expression of α-glucosidases and pepck is reminiscent of the action of the GnRH-like AKH peptide in flies but also the role of vertebrate glucagon, an independent factor that has been discussed as a functional analog of insect AKH signaling ([38], [66], [77]–[79]). […] Thus, CRZ1/GnRHL1 see ...
# [7] = molecular target: T3, GnRHR2/AKHR2; assay: Calcium mobilization (deorphanization) assay, GnRHR2/AKHR2; assay type: cell-based
# Excerpt: as §1, §2
# [8] = molecular target: T4, GnRHR1/AKHR1; assay: Calcium mobilization (deorphanization) assay, GnRHR1/AKHR1; assay type: cell-based
# Excerpt: as §1, §2
# [9] = tested on: female mice; conditions: female mice injected with leptin; ref [50]–[52]; cited from earlier work
# Excerpt: In turn, strong interconnections between the GnRH system and metabolism can also be found in several vertebrates. […] In mammals, GnRH release is also regulated by the orexigenic neuropeptide Y (NPY) and kisspeptin, which relays both sex steroid and leptin signaling to GnRH neurons ([49]). In line with this, a high-fat diet increases hypothalamic gnrh expression in prepubescent gilts ([50]), where this treatm ...
# [10] = CHO cells stably expressing apo-aequorin and human Gα16, transient transfection, calcium response 30 s, luminometer, nonlinear regression, at least 4 replicates in at least 2 independent experiments
# [11] = CHO cells, all receptor-ligand combinations tested, GnRHL3 at higher concentration (sub-micromolar to micromolar range)
# [12] = CHO cells, all receptors tested with all ligands
molecule,measurement,setting,value
CC(C)C[C@H](NC(=O)[C@H](CO)NC(=O)[C@H](Cc1ccccc1)NC(=O)[C@H](CO)NC(=O)[C@H](Cc1ccccc1)NC(=O)[C@@H]1CCC(=O)N1)C(=O)N1CCC[C@H]1C(=O)NCC(=O)N[C@@H](CCCCN)C(=O)N[C@@H](Cc1c[nH]c2ccccc12)C(=O)NCC(=O)N[C@@H](CC(N)=O)C(N)=O [GnRHL3] ([pGlu]FSFSLPGKWGN-NH2),EC50,[1]; [10],500 nM
same,activation of CrzRa,[1]; [11],also respond; also recorded: at higher concentration
same,activation of GnRH-superfamily receptors in vitro,[2],activate GnRH-superfamily receptors in vitro
same,EC50 levels for CrzR activation compared with the other CRZ ligands,[3]; GnRHL3-CrzR activation assay versus other CRZ ligands,significantly higher
same,activation of CrzR,"[3]; ligand-receptor interaction analyses, isoform not stated",activated
same,EC50,[4]; [10],5800 nM
same,activation of CrzRb,[4]; [11],also respond; also recorded: at higher concentration
O[C@H]1[C@H]2[C@H](O)CCCN2C[C@H]1O [swainsonine],development of honeybee larvae,[5],developmental delay in pupal metamorphosis
glucagon,glucose production,[6],increased glucose production
CC(C)C[C@H](NC(=O)[C@H](CO)NC(=O)[C@H](CCC(N)=O)NC(=O)[C@@H](NC(=O)[C@H](CC(C)C)NC(=O)[C@@H]1CCC(=O)N1)[C@@H](C)O)C(=O)NCC(=O)N[C@@H](Cc1c[nH]c2ccccc12)C(=O)NCC(=O)N[C@@H](CO)C(=O)N[C@@H](C)C(=O)NCC(=O)N[C@@H](CO)C(=O)N[C@@H](CO)C(N)=O [GnRH2/GnRHL4] ([pGlu]LTQSLGWGSAGSS-NH2),activation of GnRH-superfamily receptors in vitro,[2],activate GnRH-superfamily receptors in vitro
same,EC50,[7]; [10],200 nM
same,activation of GnRHR2/AKHR2,[7]; [12],specifically activated; also recorded: respond only to a single ligand
same,EC50,[8]; [10],11.5 nM
same,activation of GnRHR1/AKHR1,[8]; [12],specifically activated; also recorded: respond only to a single ligand
"leptin: leptin, injected in female mice (protein, UniProt P41160 22-167, looked up) Leptin: VPIQKVQDDTKTLIKTIVTRINDISHTQSVSAKQRVTGLDFIPGLHPILSLSKMDQTLAVYQQVLTSLPSQNVLQIANDLENLRDLLHLLAFSKSCSLPQTSGLQKPESLDGVLEASLYSTEVVALSRLQGSLQDILQQLDVSPEC",puberty onset,[9],advances puberty onset
